According to patent publication US5143923A, “Benzoisothiazole- and benziosoxazole-3-carboxamides” (Hoechst-Roussel Pharmaceuticals Inc., priority 1991, dated 1992):
Where a name gives a salt, the structure may show the parent alone. Read-outs that look alike come from different tables or passages of the source.

Tests used:
[1] = test system: apomorphine induced stereotypy; test: Inhibition of apomorphine induced stereotypy assay (extrapyramidal side effect potential); format: in vivo, male Wistar rats
Method: Potential for undersible extrapyramidal side effect activity is determined in the inhibition of apormorphine stereotypy assay by methods similar to those described by N. E. Anden, et al., J. Pharma.
Drugs are prepared using distilled water and, if insoluble, a suitable surfactant is added. The route of administration may be varied and the dosage volume is 10 ml/kg. For a primary screen, a group size of six is used. Drug is administered one hour prior to scoring and the animals are placed in individual clear plastic cages (24×14×13 cm). The control group receives vehicle. Apomorphine hydrochloride solution is prepared at a concentration of 15 mg/10 ml in a 0.03% ascorbic acid stock solution (30 mg of ascorbic acid in 100 ml of 1% saline) to increase the stability of the apomorphine hydrochloride while in solution. […] Fifty minutes after drug dosing, stereotypic behavior is noted. Stereotypic activity is defined as sniffing, licking or chewing behavior that occurs in a repetitive manner and is rated as follows: Constant sniffing, licking or chewing without interruption; the animal is considered protected if this behavior is interrupted.
The percent effectiveness of a drug is determined by the number of animals protected in each group.
A dose-response is run in the same manner as a primary screen except that a group size of 10 is used and the animals are dosed in a randomized manner. One group receives vehicle. ED50 for stereotypy are calculated by means of probit analysis.

[2] = test system: apomorphine-induced climbing; test: Inhibition of apomorphine-induced climbing, climbing mice assay (antipsychotic activity); format: in vivo, CK-1 male mice; conditions: for ED50: Mus musculus, ip, read-out: Antipsychotic Activity ED50
Method: The subject CK-1 male mice (23-27 grams) are group-housed under standard laboratory conditions. The mice are individually placed in wire mesh stick cages (4"×4"10") and are allowed one hour for adaptation and exploration of the new environment.
For evaluation of climbing, 3 readings are taken at 10, 20 and 30 minutes after apomorphine administration according to the following scale: […]
Mice consistently climbing before the injection of apormorphine are discarded.
With full-developed apomorphine climbing, the animals are hanging onto the cage walls, rather motionless, over longer periods of time. By contrast, climbs due to mere motor stimulation usually only last a few seconds.
The climbing scores are individually totaled (maximal score; 6 per mouse over 3 readings) and the total score of the control group (vehicle intraperitioneally-apomorphine subcutaneously) is set to 100%.

[3] = Rattus norvegicus, read-out: % Inhibition of apomorphine induced stereotypy
[4] = mice, compound intraperitoneally 30 min before apomorphine 1.5 mg/kg s.c.

O=C(CCCN1CCC(O)(c2ccc(Cl)cc2)CC1)c1ccc(F)cc1 [Haloperidol, reference compound] showed an inhibition at 0.2 mg/kg [1, 3] of 50% and an ED50 [2] of 0.11 mg/kg.
With CN(CCCCN1CCN(c2nsc3ccccc23)CC1)C(=O)c1nsc2ccccc12 [N-Methyl-N-[4-(1-(1,2-benzisothiazol-3-yl)-4-piperazinyl)butyl]-1,2-benzisothiazole-3-carboxamide hydrochloride] the inhibition at 40 mg/kg [1, 3] was 100%.
In the case of COc1ccccc1N1CCN(CCCCN(C)C(=O)c2nsc3ccccc23)CC1 [N-Methyl-N-[4-(1-(2-methoxyphenyl)-4-piperazinyl)butyl]-1,2-benzisothiazole-3-carboxamide dihydrochloride hemihydrate], the inhibition at 39.2 mg/kg ([1]; Rattus norvegicus, rats, dose 39.2 mg/kg body wt.) was 50%, the “Antipsychotic Activity ED50” value ([2]; mice, compound intraperitoneally 30 min before apomorphine 1.5 mg/kg s.c., dihydrochloride hemihydrate) was 4.2 mg/kg and the “Antipsychotic Activity ED50” value ([2]; mice, compound intraperitoneally 30 min before apomorphine 1.5 mg/kg s.c., listed as N-methyl-N-[4-(1-(2-methoxyphenyl)-4-piperazinyl)butyl-1,2-benzisothiazole-3-car, dihydrochloride hemihydrate) was 9.6 mg/kg.
CN(CCCCN1CCN(c2csc3cc(F)ccc23)CC1)C(=O)c1nsc2ccccc12.Cl [N-Methyl-N-[4-(1-(6-fluorobenzo[b]thiophen-3-yl)-4-piperazinyl)butyl]-1,2-benzisothiazol-3-carboxamide hydrochloride] was tested, and the inhibition at 40 mg/kg [1, 3] was 100% and the ED50 [2] was 4.5 mg/kg.
For CN(CCCCN1CCN(c2csc3cc(F)ccc23)CC1)C(=O)c1noc2ccccc12.Cl [N-Methyl-N-[4-(1-(6-fluorobenzo[b]thiophen-3-yl)-4-piperazinyl)butyl]-1,2-benzisoxazole-3-carboxamide hydrochloride], the inhibition at 52 mg/kg [1, 3] was 50% and the ED50 [2] was 5 mg/kg.
With COc1ccccc1N1CCN(CCNC(=O)c2nsc3ccccc23)CC1.Cl.Cl [N-[2-(1-(2-Methoxyphenyl)-4-piperazinyl)ethyl]-1,2-benzisothiazole-3-carboxamide dihydrochloride] the inhibition at 51.8 mg/kg [1, 3] was 50% and the ED50 [2] was 6.3 mg/kg.
Cl.O=C(NCCN1CCN(c2csc3cc(F)ccc23)CC1)c1noc2ccccc12 [N-[2-(1-(6-fluorobenzo[b]thiophen-3-yl)-4-piperazinyl)ethyl]-1,2-benzisoxazole-3-carboxamide hydrochloride] gave an inhibition at 80 mg/kg [1, 3] of 0% and an ED50 [2] of 4.9 mg/kg.
Work on Cl.O=C(NCCCCN1CCN(c2nsc3ccccc23)CC1)c1nsc2ccccc12 [N-[4-(1-(1,2-Benzisothiazol-3-yl)-4-piperazinyl)butyl]-1,2-benzisothiazole-3-carboxamide hydrochloride] yielded an inhibition at 40 mg/kg [1, 3] of 17% and an ED50 [2] of 8.3 mg/kg.
In the case of CCN1CCCC1CNC(=O)c1cc(S(N)(=O)=O)ccc1OC (centres unmarked) [Sulpiride, reference compound], the ED50 [2, 4] was 4.5 mg/kg.
Compound CSc1ccc2c(c1)N(CCC1CCCCN1C)c1ccccc1S2 (centres unmarked) [thioridazine, reference compound] has an inhibition at 16 mg/kg ([1]; Rattus norvegicus, rats, dose 16 mg/kg body wt.) of 50%.
For “N-[2-(1-(4-Fluorobenzoyl)-4-piperidinyl)ethyl]-1,2-benzisothiazole-3-carboxamide hydrochloride hemihydrate”, the “% Inhibition of apomorphine induced stereotypy” value ([1]; rats, dose 20 mg/kg body wt.) was 67% and the “Antipsychotic Activity ED50” value [2, 4] was 3.6 mg/kg.
